Data reported in patent US11180474B2 (BRISTOL-MYERS SQUIBB COMPANY, priority 2016, dated 2021).
Counter-ions that a name gives are not always drawn.

Molecular target: T1, human TLR9 (Homo sapiens, UniProt Q9NR96)
T1 construct: host or cells: HEK-Blue cells
T1 sequence (Q9NR96 26-1032): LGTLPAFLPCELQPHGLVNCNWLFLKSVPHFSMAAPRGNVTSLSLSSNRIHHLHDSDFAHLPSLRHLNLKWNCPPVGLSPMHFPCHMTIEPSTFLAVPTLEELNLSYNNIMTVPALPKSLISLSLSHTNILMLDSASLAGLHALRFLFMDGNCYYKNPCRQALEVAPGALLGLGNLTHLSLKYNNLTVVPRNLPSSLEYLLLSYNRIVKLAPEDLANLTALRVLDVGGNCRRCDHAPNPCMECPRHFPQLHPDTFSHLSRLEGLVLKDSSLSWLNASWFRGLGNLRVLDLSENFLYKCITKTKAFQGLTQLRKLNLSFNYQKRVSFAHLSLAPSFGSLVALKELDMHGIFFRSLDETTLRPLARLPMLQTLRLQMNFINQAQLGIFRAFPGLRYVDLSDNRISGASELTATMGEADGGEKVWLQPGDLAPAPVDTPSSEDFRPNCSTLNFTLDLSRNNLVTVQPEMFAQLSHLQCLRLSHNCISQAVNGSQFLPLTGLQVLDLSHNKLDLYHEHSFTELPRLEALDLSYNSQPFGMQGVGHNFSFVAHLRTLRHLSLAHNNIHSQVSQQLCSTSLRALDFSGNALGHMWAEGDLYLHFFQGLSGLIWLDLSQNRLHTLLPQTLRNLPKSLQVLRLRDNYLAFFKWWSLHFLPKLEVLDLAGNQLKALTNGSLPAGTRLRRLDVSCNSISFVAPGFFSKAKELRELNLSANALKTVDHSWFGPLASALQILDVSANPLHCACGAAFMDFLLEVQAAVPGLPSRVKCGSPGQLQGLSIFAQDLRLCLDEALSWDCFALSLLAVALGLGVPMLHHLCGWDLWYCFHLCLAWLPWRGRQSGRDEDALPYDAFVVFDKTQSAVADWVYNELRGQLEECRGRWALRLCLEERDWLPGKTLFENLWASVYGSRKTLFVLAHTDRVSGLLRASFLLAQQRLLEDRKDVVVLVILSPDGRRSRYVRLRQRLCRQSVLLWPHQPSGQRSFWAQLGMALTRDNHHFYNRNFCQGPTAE
Experiment: TLR9 inhibition reporter assay (HEK-Blue cells, SEAP reporter, ODN2006 stimulation)
Assay type: cell-based
Conditions: HEK-Blue cells overexpressing human TLR9, ODN2006 5 nM
Method in brief: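 Compound treatment: 30 min, RT, 0.05 nM–50 μM final. Agonist: TLR7 gardiquimod 7.5 μM; TLR8 R848 15.9 μM; TLR9 ODN2006 5 nM. Incubation 22 h, 37 °C, 5% CO2. Readout SEAP, HEK-Blue Detection.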

Row | Compound | IC50
1 | CCc1c(-c2ccc(OC)c(OC)c2)[nH]c2ccc(C3CCN(C(=O)CNCC#N)CC3)cc12 [Example 161, 2-((2-(4-(2-(3,4-dimethoxyphenyl)-3-ethyl-1H-indol-5-yl)piperidin-1-yl)-2-oxoethyl)amino)acetonitrile] | ≥ 50000 nM
2 | CCc1c(-c2ccc(OC)c(OC)c2)[nH]c2ccc(C3CCN(C(C)=O)CC3)cc12 [Example 185, 1-(4-(2-(3,4-dimethoxyphenyl)-3-ethyl-1H-indol-5-yl)piperidin-1-yl)ethan-1-one] | 32400 nM
3 | CCc1c(-c2ccc(OC)c(OC)c2)[nH]c2ccc(C3CCN(C(=O)C4CCNCC4)CC3)cc12 [Example 186, (4-(2-(3,4-dimethoxyphenyl)-3-ethyl-1H-indol-5-yl)piperidin-1-yl)(piperidin-4-yl) methanone] | 991 nM
4 | CCN(CC)C(=O)CN(C)CC(=O)N1CCC(c2ccc3[nH]c(-c4ccc(OC)c(OC)c4)c(C(C)C)c3c2)CC1 [Example 203, 2-((2-(4-(2-(3,4-dimethoxyphenyl)-3-isopropyl-1H-indol-5-yl)piperidin-1-yl)-2-oxoethyl)(methyl)amino)-N,N-diethylacetamide, TFA] | 6660 nM
5 | CCc1c(-c2ccc(OC)c(OC)c2)[nH]c2ccc(C3CCN(C4CCN(Cc5c(C)noc5C)CC4)CC3)cc12 [Example 138, 4-((4-(2-(3,4-dimethoxyphenyl)-3-ethyl-1H-indol-5-yl)-[1,4′-bipiperidin]-1′-yl)methyl)-3,5-dimethylisoxazole] | 1400 nM
6 | CCc1c(-c2ccc(OC)c(OC)c2)[nH]c2c(F)cc(C3CCN(CCNC)CC3)cc12 [Example 191, 2-(4-(2-(3,4-dimethoxyphenyl)-3-ethyl-7-fluoro-1H-indol-5-yl)piperidin-1-yl)-N-methylethan-1-amine] | 1220 nM
7 | COc1ccc(-c2[nH]c3ccc(C4CCN(C(=O)CNCC(C)O)CC4)cc3c2C(C)C)cc1OC (centres unmarked) [Example 210, 1-(4-(2-(3,4-dimethoxyphenyl)-3-isopropyl-1H-indol-5-yl)piperidin-1-yl)-2-((2-hydroxypropyl)amino)ethan-1-one] | 1930 nM
8 | COc1ccc(-c2[nH]c3ccc(C4CCN(C(=O)CNCC(C)(C)CO)CC4)cc3c2C(C)C)cc1OC [Example 219, 1-(4-(2-(3,4-dimethoxyphenyl)-3-isopropyl-1H-indol-5-yl)piperidin-1-yl)-2-((3-hydroxy-2,2-dimethylpropyl)amino)ethan-1-one] | 2100 nM
9 | CCc1c(-c2ccc(OC)c(OC)c2)[nH]c2c(F)cc(C3CCNCC3)cc12 [Example 189, 2-(3,4-dimethoxyphenyl)-3-ethyl-7-fluoro-5-(piperidin-4-yl)-1H-indole] | 1150 nM
10 | COc1ccc(-c2[nH]c3ccc(C4CCN(C(=O)CNC5CCC(N(C)C)CC5)CC4)cc3c2C(C)C)cc1OC (centres unmarked) [Example 215, 1-(4-(2-(3,4-dimethoxyphenyl)-3-isopropyl-1H-indol-5-yl)piperidin-1-yl)-2-((4-(dimethylamino)cyclohexyl)amino)ethan-1-one] | 2020 nM
11 | COc1ccc(-c2[nH]c3ccc(C4CCN(C5CCNCC5)CC4)cc3c2C(C)C)cc1OC [Example 197, 5-([1,4′-bipiperidin]-4-yl)-2-(3,4-dimethoxyphenyl)-3-isopropyl-1H-indole dihydrochloride] | 653 nM

These reach a lower IC50. Values come first.

Row | IC50 | Compound
12 | 280 nM | CCc1c(-c2ccc(OC)c(OC)c2)[nH]c2c(F)cc(C3CCN(C4CCN(CC(C)C)CC4)CC3)cc12 [Example 190, 2-(3,4-dimethoxyphenyl)-3-ethyl-7-fluoro-5-(1′-isobutyl-[1,4′-bipiperidin]-4-yl)-1H-indole]
13 | 157 nM | COc1ccc(-c2[nH]c3ccc(C4CCN(C5CCN(CC(C)C)CC5)CC4)cc3c2Cl)cc1OC [Example 120, 3-chloro-2-(3,4-dimethoxyphenyl)-5-(1′-isobutyl-[1,4′-bipiperidin]-4-yl)-1H-indole di-trifluoroacetic acid]
14 | 490 nM | COc1ccc(-c2[nH]c3ccc(C4CCN(C5CCN(CC6CC6)CC5)CC4)cc3c2C(C)C)cc1OC [Example 198, 5-(1′-(cyclopropylmethyl)-[1,4′-bipiperidin]-4-yl)-2-(3,4-dimethoxyphenyl)-3-isopropyl-1H-indole di trifluoroacetic acid]
15 | 260 nM | CCc1c(-c2ccc(OC)c(OC)c2)[nH]c2cc(OC)c(C3CCN(C4CCN(C(C)C)CC4)CC3)cc12 [Example 192, 2-(3,4-dimethoxyphenyl)-3-ethyl-5-(1′-isopropyl-[1,4′-bipiperidin]-4-yl)-6-methoxy-1H-indole]
16 | 492 nM | CCc1c(-c2ccc(OC)c(OC)c2)[nH]c2ccc(C3CCN(CCNC)CC3)cc12 [Example 155, 2-(4-(2-(3,4-dimethoxyphenyl)-3-ethyl-1H-indol-5-yl)piperidin-1-yl)-N-methylethanamine di-trifluoroacetic acid]
17 | 378 nM | CCCc1c(-c2ccc(OC)c(OC)c2)[nH]c2ccc(C3CCN(C4CCN(CC(C)C)CC4)CC3)cc12 [Example 121, 2-(3,4-dimethoxyphenyl)-5-(1′-isobutyl-[1,4′-bipiperidin]-4-yl)-3-propyl-1H-indole-di-trifluoroacetic acid]
18 | 444 nM | CCc1c(-c2ccc(OC)c(OC)c2)[nH]c2ccc(C3CCN(C4CCN(Cc5sccc5C)CC4)CC3)cc12 [Example 139, 2-(3,4-dimethoxyphenyl)-3-ethyl-5-(1′-((3-methylthiophen-2-yl)methyl)-[1,4′-bipiperidin]-4-yl)-1H-indole]
19 | 447 nM | CCc1c(-c2ccc(OC)c(OC)c2)[nH]c2ccc(C3CCN(C4CCN(Cc5cc(C)n[nH]5)CC4)CC3)cc12 [Example 131, 2-(3,4-dimethoxyphenyl)-3-ethyl-5-(1′-((3-methyl-1H-pyrazol-5-yl)methyl)-[1,4′-bipiperidin]-4-yl)-1H-indole]
20 | 552 nM | CCc1c(-c2ccc(OC)c(OC)c2)[nH]c2ccc(C3CCN(C4CCN(Cc5ccccc5)CC4)CC3)cc12 [Example 147, 5-(1′-benzyl-[1,4′-bipiperidin]-4-yl)-2-(3,4-dimethoxyphenyl)-3-ethyl-1H-indole]
21 | 613 nM | CCc1c(-c2ccc(OC)c(OC)c2)[nH]c2cc(C)c(C3CCN(CCNC)CC3)cc12 [Example 188, 2-(4-(2-(3,4-dimethoxyphenyl)-3-ethyl-6-methyl-1H-indol-5-yl)piperidin-1-yl)-N-methylethanamine-di-trifluoroacetic acid]
22 | 267 nM | CCOC(=O)c1c(C)[nH]c(CN2CCC(N3CCC(c4ccc5[nH]c(-c6ccc(OC)c(OC)c6)c(CC)c5c4)CC3)CC2)c1C [Example 127, ethyl 5-((4-(2-(3,4-dimethoxyphenyl)-3-ethyl-1H-indol-5-yl)-[1,4′-bipiperidin]-1′-yl)methyl)-2,4-dimethyl-1H-pyrrole-3-carboxylate]
23 | 257 nM | COc1ccc(-c2[nH]c3ccc(C4CCN(C5CCN(CC(C)C)CC5)CC4)cc3c2C(C)C)cc1OC [Example 199, 2-(3,4-dimethoxyphenyl)-5-(1′-isobutyl-[1,4′-bipiperidin]-4-yl)-3-isopropyl-1H-indole]
